Experiments:
[1] = Tissue distribution of [125I]- labelled compound in mice atria in 24 hours; assay type: functional
[2] = Tissue distribution of [125I]- labelled compound in mice atria in 4 hours; assay type: functional
[3] = Tissue distribution of [125I]- labelled compound in mice blood in 0.5 hours; assay type: functional, tissue-based
[4] = Tissue distribution of [125I]- labelled compound in mice blood in 24 hours; assay type: functional, tissue-based
[5] = (§1) Tissue distribution of [125I]- labelled compound in mice blood in 4 hours; assay type: functional, tissue-based
[6] = Tissue distribution of [125I]- labelled compound in mice cerebellum in 0.5 hr; assay type: functional, tissue-based
[7] = Tissue distribution of [125I]- labelled compound in mice ventricles in 0.5 hr; assay type: functional
[8] = Tissue distribution of [125I]- labelled compound in mice ventricles in 4 hours; assay type: functional
[9] = Tissue distribution of [125I]- labelled compound in mice […] in 24 hours; assay type: functional
[10] = Tissue distribution of [125I]- labelled compound in mice […] in 4 hours; assay type: functional
[11] = Tissue distribution of [125I]- labelled compound in mice latria in 0.5 hr; assay type: functional
[12] = Tissue distribution of [125I]- labelled compound in mice liver in 0.5 hr; assay type: functional, tissue-based
[13] = Tissue distribution of [125I]- labelled compound in mice liver in 24 hours; assay type: functional, tissue-based
[14] = Tissue distribution of [125I]- labelled compound in mice liver in 4 hours; assay type: functional, tissue-based
[15] = Tissue distribution of [125I]- labelled compound in mice lung in 0.5 hr; assay type: functional, tissue-based
[16] = Tissue distribution of [125I]- labelled compound in mice lung in 24 hours; assay type: functional, tissue-based
[17] = Tissue distribution of [125I]- labelled compound in mice lung in 4 hours; assay type: functional, tissue-based
[18] = Tissue distribution of [125I]- labelled compound in mice striatum in 0.5 hours; assay type: functional, tissue-based
[19] = Tissue distribution of [125I]- labelled compound in mice striatum in 24 hours; assay type: functional, tissue-based
[20] = Tissue distribution of [125I]- labelled compound in mice striatum in 4 hours; assay type: functional, tissue-based
[21] = Tissue distribution of [125I]- labelled compound in mice ventricle in 24 hours; assay type: functional
[22] = Tissue distribution of [125I]- labelled compound in mice cerebellum in 24 hours; assay type: functional, tissue-based
[23] = Tissue distribution of [125I]- labelled compound in mice cerebellum in 4 hours; assay type: functional, tissue-based
[24] = Tissue distribution of [125I]- labelled compound in mice cortex in 0.5 hours; assay type: functional, tissue-based
[25] = Tissue distribution of [125I]- labelled compound in mice cortex in 24 hours; assay type: functional, tissue-based
[26] = Tissue distribution of [125I]- labelled compound in mice cortex in 4 hours; assay type: functional, tissue-based
[27] = Tissue distribution of [125I]- labelled compound in mice hippocampus in 0.5 hours; assay type: functional, tissue-based
[28] = Tissue distribution of [125I]- labelled compound in mice hippocampus in 24 hours; assay type: functional, tissue-based
[29] = Tissue distribution of [125I]- labelled compound in mice hippocampus in 4 hours; assay type: functional, tissue-based
[30] = Tissue distribution of [125I]- labelled compound in mice […] in 0.5 hours; assay type: functional
[31] = Tissue distribution of [125I]- labelled compound in mice atria in 0.5 hr; assay type: functional
Mus musculus = species: Mus musculus; experiment: as §1; assay type: ADME, organism-based; conditions: in vivo

SMILES | Dose/g [2] [%] | Dose/g [3] [%] | Dose/g [5] [%] | Dose/g [6] [%] | Dose/g [7] [%] | Dose/g [8] [%] | Dose/g [10] [%] | Dose/g [11] [%] | Dose/g [12] [%] | Dose/g [14] [%] | Dose/g [15] [%] | Dose/g [17] [%] | Dose/g [18] [%] | Dose/g [20] [%] | Dose/g [23] [%] | Dose/g [24] [%] | Dose/g [26] [%] | Dose/g [27] [%] | Dose/g [29] [%] | Dose/g [30] [%] | further results
O[C@@H]1Cc2cccc(I)c2C[C@H]1N1CCC(c2ccccc2)CC1 | 1.43 | 0.82 | 0.53 | 1.28 | 1.27 | 0.31 | 0.61 | 1.73 | 11 | 5.92 | 7.57 | 1.11 | 3.81 | 3.3 | 0.21 | 2.29 | 1.17 | 2.09 | 1.06 | 1.69 | Dose/g [1]: 0.82%; Dose/g [4]: 0.04%; Dose/g [9]: 0.42%; Dose/g [13]: 0.89%; Dose/g [16]: 0.09%; Dose/g [19]: 2.2%; Dose/g [21]: 0.06%; Dose/g [22]: 0.05%; Dose/g [25]: 0.88%; Dose/g [28]: 0.71%
O[C@@H]1Cc2c(I)cccc2C[C@H]1N1CCC(c2ccccc2)CC1 | 0.34 | 1 | 0.19 | 1.22 | 1.25 | 0.23 | – | 1.64 | – | – | – | – | 1.64 | 0.12 | 0.08 | 1.53 | 0.1 | – | – | – | –
O[C@@H]1Cc2ccccc2C[C@H]1N1CCC(c2ccc(I)cc2)CC1 | 1.35 | 1.85 | 0.66 | 2.33 | 2.9 | 1.88 | 0.28 | 3.03 | 15.4 | 9.12 | 8.86 | 2.95 | 2.68 | 0.33 | 0.28 | 3.01 | 0.32 | 2.91 | 0.31 | 2.73 | –
O[C@@H]1Cc2cc(I)ccc2C[C@H]1N1CCC(c2ccccc2)CC1 | 2.45 | 1.13 | 0.47 | 2.06 | 3.29 | 1.77 | 1.42 | – | 19.3 | 12.7 | 13.1 | 5.86 | 2.34 | 1.96 | 1.23 | 2.32 | 1.62 | 1.99 | 1.27 | 2.16 | Dose/g [31]: 4.37%; Dose/g [1]: 0.77%; Dose/g [4]: 0.09%; Dose/g (Mus musculus): 0.47%; Dose/g [9]: 1.35%; Dose/g [13]: 6.48%; Dose/g [16]: 1.74%; Dose/g [19]: 2.32%; Dose/g [21]: 0.27%; Dose/g [22]: 1.06%; Dose/g [25]: 1.74%; Dose/g [28]: 1.48%
O[C@@H]1Cc2ccc(I)cc2C[C@H]1N1CCC(c2ccccc2)CC1 | 0.97 | 1.06 | 0.51 | 2.05 | 1.34 | 0.53 | 0.68 | 2.09 | 18 | 6.33 | 3.39 | 0.89 | 3.9 | 3.07 | 0.29 | 2.99 | 1.28 | 2.73 | 1.03 | 2.51 | Dose/g [1]: 0.1%; Dose/g [4]: 0.05%; Dose/g [9]: 0.1%; Dose/g [13]: 0.88%; Dose/g [16]: 0.1%; Dose/g [19]: 0.76%; Dose/g [21]: 0.1%; Dose/g [22]: 0.05%; Dose/g [25]: 0.22%; Dose/g [28]: 0.16%

Reference: ChEMBL document CHEMBL1129611, “Vesamicol receptor mapping of brain cholinergic neurons with radioiodine-labeled positional isomers of benzovesamicol” (J Med Chem, 1996)
